Laboratory results published in PMC11173765 (Molecules, 2024).
Values joined by “and” are separate entries in the source; they are usually repeats but may differ in a detail not shown here. Identical values can stand only once. Like-named read-outs stand apart in the source and are kept apart here.

Experiments:
S2R [1] = target: T1, S2R (Rattus norvegicus, UniProt Q5U3Y7); assay: S2R radioligand binding assay ([3H]-DTG with (+)-pentazocine mask, rat liver homogenates); conditions: for Ki: [3H]-DTG 2 nM, (+)-pentazocine 5 μM mask, rat liver homogenates, mean ± SEM; for S1R/S2R: selectivity ratio Ki S1R / Ki S2R
T1 construct: liver homogenates (250 μg/sample) from male Sprague Dawley rats; from tissue; host or cells: liver homogenate of male Sprague Dawley rats
T1 sequence (Q5U3Y7 1-176): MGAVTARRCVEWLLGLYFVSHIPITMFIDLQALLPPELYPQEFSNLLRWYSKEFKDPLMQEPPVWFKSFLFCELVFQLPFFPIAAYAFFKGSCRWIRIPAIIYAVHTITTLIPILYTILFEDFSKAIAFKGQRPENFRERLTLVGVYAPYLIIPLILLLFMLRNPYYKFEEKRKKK
Description: (§1) The S1R and S2R receptor affinities of the test compounds were evaluated in competition tests by radiometric assays.
(§2) Liver homogenates were prepared from Sprague Dawley rats (ENVIGO RMS S.R.L., Udine, Italy) for both S1R and S2R receptor binding assays. […] An Ultima Gold MV Scintillation cocktail was sourced from PerkinElmer (Milan, Italy). Other materials were obtained from Merck Life Science S.r.l. (Milan, Italy). For each compound, a10 mM DMSO stock solution was obtained. From these, diluted test concentrations ranging from 10^−5 M to 10^−11 M wereprepared using the respective assay buffer. Both assays involve the use of a tris buffer (50 mM, pH 8) and liver homogenates (250 μg/sample) from male Sprague Dawley rats. […] The final volume was 0.5 mL [54]. A millipore filter apparatus was employed to separate bound and free radioligands via filtration under conditions of reduced pressure through Whatman GF 6 glass fiber filters. Each filter paper was washed three times with 2 mL of ice-cold tris buffer (50 mM for S1R, 10 mM for S2R; pH 8.0), dried at room temperature, and incubated overnight with 2 mL of Ultima Gold MV Scintillation cocktail in pony vials. Bound radioactivity was determined using a liquid scintillation counter Beckman LS 6500 (Beckman Coulter Diagnostic, Brea, CA, USA. […]

SH-SY5Y = assay: Cytotoxicity, resazurin viability assay in SH-SY5Y cells; format: cell-based; conditions: Homo sapiens, 48 hrs treatment, mean ± SEM
Description: (§3) Cytotoxic potency was measured using a resazurin assay (see Supplementary Materials). Cells were treated with increasing concentrations of each compound for 48 hours before the cell viability was assessed (Supplementary Materials).
(§4) Dulbecco’s modified Eagle medium (DMEM; Gibco, Life Technologies, Grand Island, NY, USA), supplemented with 10% (v/v) of fetal bovine serum (FBS) and Antibiotic Antimycotic Solution (100 U penicillin, 100 μg/mL streptomycin and 0.25 μg/mL amphotericin B; Sigma-Aldrich, St. Louis, MO, USA), was used to culture the human cell lines SH-SY5Y [55] (neuroblastoma, ATCC, CRL-2266) and HUH-7 [56] (hepatocarcinoma, Japanese Cancer Research Resources Bank, National Institutes of Biomedical Innovation, Health and Nutrition, NIBIOHN, JCRB0403).
(§5) Cell viability was evaluated using resazurin (SERVA Electrophoresis GmbH, Heidelberg, Germany) as previously described.
(§6) Briefly, a resazurin stock solution (440 μM, 10× in phosphate-buffered saline) was diluted in a culture medium to prepare a 44 μM working solution. Cells (5 × 10^3) were seeded in 96-well plates, incubated with 100µl of resazurin working solution, and fluorescence was measured after 1, 2, and 3 hrs. The background fluorescence of killed cells was subtracted, and viability was calculated relative to control cells treated with DMSO solvent (1%). The fluorescence was measured using an Envision 2104 Multi-label Microplate Reader (Perkin Elmer, Boston, MA, USA) and by setting the excitation wavelength at λ = 530 nm and emission wavelength at λ = 590 nm. Measurements were performed at a time of 0 and after 1 hour of incubation. Cytotoxicity was calculated as 100% minus the percentage of viability.
(§7) Statistical analysis was carried out with GraphPad Prism® 6.0 software. An unpaired t-test was used to compare treated and control cells, with p < 0.05 considered statistically significant. The half-maximal inhibitory concentration (IC50) values for cytotoxicity were determined by analyzing dose-response curves using GraphPad Prism software.

HUH-7 = assay: Cytotoxicity, resazurin viability assay in HUH-7 cells; format: cell-based; conditions: Homo sapiens, 48 hrs treatment, mean ± SEM
Description: as §3, §4, §5, §6, §7

S1R [2] = target: T2, S1R (Rattus norvegicus, UniProt Q9R0C9); assay: S1R radioligand binding assay ([3H]-pentazocine, rat liver homogenates); conditions: for SR subtype preference: in words, from S1R and S2R binding affinities; for S2R/S1R: selectivity ratio Ki S2R / Ki S1R
T2 construct: liver homogenates (250 μg/sample) from male Sprague Dawley rats; from tissue; host or cells: liver homogenate of male Sprague Dawley rats
T2 sequence (Q9R0C9 whole entry): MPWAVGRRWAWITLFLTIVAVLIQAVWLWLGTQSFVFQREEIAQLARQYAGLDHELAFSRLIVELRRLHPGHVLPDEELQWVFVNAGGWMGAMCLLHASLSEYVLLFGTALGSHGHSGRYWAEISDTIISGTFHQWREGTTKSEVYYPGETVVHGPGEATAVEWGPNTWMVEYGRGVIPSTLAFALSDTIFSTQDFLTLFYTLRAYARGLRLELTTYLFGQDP
Description: as §1, §2

S1R [3] = conditions: read-out: Ki S1R; siramesine literature value; cited from earlier work
S2R [4] = conditions: read-out: Ki S2R; siramesine literature value; cited from earlier work
[5] = [3H]-pentazocine 2 nM, rat liver homogenates, mean ± SEM, read-out: Ki S1R

Row | SMILES | Ki (S2R [1]; Ki S2R) | S1R/S2R (S2R [1]) | IC50 (SH-SY5Y) | melting point | IC50 (HUH-7) | Ki (S1R [2]) | SR subtype preference (S1R [2]) | S2R/S1R (S1R [2]) | Ki (S2R [1]; read-out: Ki S2R) | Ki (S1R [2]; [5]) | Ki (S1R [3]) | Ki (S2R [4])
1 | O=C(CCCN1CCC2(CC1)OCc1ccccc12)c1ccc(F)cc1 [4g, 1-(4-Fluorophenyl)-4-(3H-spiro[isobenzofuran-1,4′-piperidin]-1′-yl)butan-1-one] | 9.2 nM and 9.23 nM | 0.7 | 57000 ± 6000 nM | 88 to 90 °C | 16000 ± 2000 nM | 6.3 ± 1.4 nM | dual SR affinity | 1.46 | – | – | – | –
2 | O=C(CCCN1CCC(c2ccncc2)CC1)c1ccc(F)cc1 [4i, 1-(4-Fluorophenyl)-4-(4-(pyridin-4-yl)piperidin-1-yl)butan-1-one] | – | 0.5 | – | 102 to 104 °C | – | – | preference for the S1R subtype | 2.03 | 28.3 ± 3.33 nM | 13.9 ± 3.11 nM | – | –
3 | O=C(CCCN1CCN(c2ccc(F)cc2)CC1)c1ccc(F)cc1 [4f, 1-(4-Fluorophenyl)-4-(4-(4-fluorophenyl)piperazin-1-yl)butan-1-one] | – | 4.3 | – | 94 to 95 °C | – | – | preference for S2R | 0.23 | 16.4 ± 3.17 nM | 70.2 ± 23.2 nM | – | –
4 | Cc1ccc(CN(C)CCCC(=O)c2ccc(F)cc2)c(C)c1 [4h, 4-((2,4-Dimethylbenzyl)(methyl)amino)-1-(4-fluorophenyl)butan-1-one] | – | 2.1 | – | – | – | – | preference for S2R | 0.46 | 27.7 ± 3.03 nM | 59.7 ± 7.6 nM | – | –
5 | Fc1ccc(-n2cc(CCCCN3CCC4(CC3)OCc3ccccc34)c3ccccc32)cc1 [SRM, siramesine, reference compound] | – | 0.8 | 5000 ± 1000 nM | – | 2000 ± 250 nM | – | – | 1.2 | – | – | 10.5 ± 2.6 nM | 12.6 ± 0.1 nM
6 | O=C(CCCN1CCN(C2CCCCC2)CC1)c1ccc(F)cc1 [4d, 4-(4-Cyclohexylpiperazin-1-yl)-1-(4-fluorophenyl)butan-1-one] | – | 1.4 | – | 198 to 200 °C | 163000 ± 18000 nM | – | dual SR affinity | 0.7 | 13.2 ± 2.78 nM | 18.8 ± 2.91 nM | – | –
7 | COc1cc2c(cc1OC)CN(CCCC(=O)c1ccc(F)cc1)CC2 [4e, 4-(6,7-Dimetoxy-3,4-dihydroisoquinolin-2(1H)-yl)-1-(4-fluorophenyl)butan-1-one] | – | 241 | 120000 ± 13000 nM | – | 40000 ± 5000 nM | – | preference for S2R | 0.004 | 6.93 ± 0.76 nM | 1660 ± 118 nM | – | –
8 | O=C(CCCN1CCc2ccccc2C1)c1ccc(F)cc1 [4b, 4-(3,4-Dihydroisoquinolin-2(1H)-yl)-1-(4-fluorophenyl)butan-1-one] | – | 0.35 | – | 45 to 47 °C | – | – | preference for the S1R subtype | 2.8 | 124 ± 16.3 nM | 44.5 ± 7.39 nM | – | –
9 | COc1ccc(CN(C)CCCC(=O)c2ccc(F)cc2)cc1OC [4c, 4-((3,4-Dimethoxybenzyl)(methyl)-amino)-1-(4-fluorophenyl)butan-1-one] | – | 2.0 | – | – | – | – | preference for S2R | 0.5 | 148 ± 10.3 nM | 301 ± 74.7 nM | – | –
10 | O=C(CCCN1CCCN(Cc2ccccc2)CC1)c1ccc(F)cc1 [4a, 4-(4-Benzyl-1,4-diazepan-1-yl)-1-(4-fluorophenyl)butan-1-one] | – | – | – | – | – | – | preference for the S1R subtype | 10 | 210 ± 21.4 nM | 21.6 ± 3.44 nM | – | –
11 | COc1ccc(CC2CCN(CCCC(=O)c3ccc(F)cc3)CC2)cc1OC [4j, 4-(4-(3,4-Dimetoxybenzyl)piperidin-1-yl)-1-(4-fluorophenyl)butan-1-one] | – | 0.04 | 58000 ± 7000 nM | – | 37000 ± 6000 nM | – | preference for the S1R subtype | 25 | 153 ± 30.3 nM | 6.1 ± 0.58 nM | – | –
